Experimental data reported in ChEMBL document CHEMBL4507282, “Data for DCP probe BI-1950” (2021).

Columns and labels:
[1] = target: Serine/threonine-protein kinase TNNI3K (Homo sapiens) (UniProt Q59H18); conditions: Compound concentration 1000.0 nM
[2] = test system: ALK tyrosine kinase receptor (Homo sapiens), Q9UM73 [L1196M]; conditions: Compound concentration 1000.0 nM
[3] = target: Myosin light chain kinase family member 4 (Homo sapiens) (UniProt Q86YV6); conditions: Compound concentration 1000.0 nM
[4] = target: Tyrosine-protein kinase ZAP-70 (Homo sapiens) (UniProt P43403); conditions: Compound concentration 1000.0 nM
[5] = target: Mitogen-activated protein kinase kinase kinase 2 (Homo sapiens) (UniProt Q9Y2U5); conditions: Compound concentration 1000.0 nM
Sequence of Mitogen-activated protein kinase kinase kinase 2 (Homo sapiens) (Q9Y2U5 whole entry): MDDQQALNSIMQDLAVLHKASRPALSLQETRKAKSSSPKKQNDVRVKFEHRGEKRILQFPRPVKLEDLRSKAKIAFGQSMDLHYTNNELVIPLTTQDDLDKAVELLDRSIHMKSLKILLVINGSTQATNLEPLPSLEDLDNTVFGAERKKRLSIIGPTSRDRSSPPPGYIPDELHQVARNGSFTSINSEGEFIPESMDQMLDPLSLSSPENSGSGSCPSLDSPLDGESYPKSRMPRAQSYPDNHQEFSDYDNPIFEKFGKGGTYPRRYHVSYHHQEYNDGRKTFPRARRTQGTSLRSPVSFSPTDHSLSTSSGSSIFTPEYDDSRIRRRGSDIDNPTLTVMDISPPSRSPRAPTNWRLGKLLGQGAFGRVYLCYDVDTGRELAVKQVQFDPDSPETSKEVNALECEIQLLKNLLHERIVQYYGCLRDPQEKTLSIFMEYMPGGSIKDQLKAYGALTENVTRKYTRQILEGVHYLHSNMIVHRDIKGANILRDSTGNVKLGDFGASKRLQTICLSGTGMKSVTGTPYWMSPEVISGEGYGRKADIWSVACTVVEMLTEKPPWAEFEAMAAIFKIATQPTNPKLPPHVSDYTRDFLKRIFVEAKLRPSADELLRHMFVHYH

[6] = target: Serine/threonine-protein kinase TAO3 (Homo sapiens) (UniProt Q9H2K8); conditions: Compound concentration 1000.0 nM
[7] = target: Serine/threonine-protein kinase tousled-like 1 (Homo sapiens) (UniProt Q9UKI8); conditions: Compound concentration 1000.0 nM
[8] = target: RAC-beta serine/threonine-protein kinase (Homo sapiens) (UniProt P31751); conditions: Compound concentration 1000.0 nM
Sequence of RAC-beta serine/threonine-protein kinase (Homo sapiens) (P31751 whole entry): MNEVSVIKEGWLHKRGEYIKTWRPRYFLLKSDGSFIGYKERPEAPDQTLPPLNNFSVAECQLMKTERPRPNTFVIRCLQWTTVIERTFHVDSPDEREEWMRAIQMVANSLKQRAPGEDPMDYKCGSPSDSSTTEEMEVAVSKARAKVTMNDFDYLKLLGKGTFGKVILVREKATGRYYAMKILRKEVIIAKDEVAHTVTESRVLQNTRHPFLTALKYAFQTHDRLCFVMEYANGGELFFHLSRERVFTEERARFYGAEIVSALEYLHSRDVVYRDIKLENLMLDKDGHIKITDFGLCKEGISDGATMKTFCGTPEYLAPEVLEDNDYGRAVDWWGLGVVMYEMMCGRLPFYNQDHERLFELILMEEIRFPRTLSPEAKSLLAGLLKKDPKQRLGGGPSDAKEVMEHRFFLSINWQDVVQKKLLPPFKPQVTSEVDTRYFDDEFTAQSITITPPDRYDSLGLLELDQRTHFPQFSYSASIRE

[9] = target: Microtubule-associated serine/threonine-protein kinase 1 (Homo sapiens) (UniProt Q9Y2H9); conditions: Compound concentration 1000.0 nM
[10] = target: Serine/threonine-protein kinase PAK 3 (Homo sapiens) (UniProt O75914); conditions: Compound concentration 1000.0 nM
[11] = target: Mitogen-activated protein kinase kinase kinase 7 (Homo sapiens) (UniProt O43318); conditions: Compound concentration 1000.0 nM
[12] = target: Aurora kinase B (Homo sapiens) (UniProt Q96GD4); conditions: Compound concentration 1000.0 nM
[13] = target: Serine/threonine-protein kinase PLK4 (Homo sapiens) (UniProt O00444); conditions: Compound concentration 1000.0 nM
Sequence of Serine/threonine-protein kinase PLK4 (Homo sapiens) (O00444 whole entry): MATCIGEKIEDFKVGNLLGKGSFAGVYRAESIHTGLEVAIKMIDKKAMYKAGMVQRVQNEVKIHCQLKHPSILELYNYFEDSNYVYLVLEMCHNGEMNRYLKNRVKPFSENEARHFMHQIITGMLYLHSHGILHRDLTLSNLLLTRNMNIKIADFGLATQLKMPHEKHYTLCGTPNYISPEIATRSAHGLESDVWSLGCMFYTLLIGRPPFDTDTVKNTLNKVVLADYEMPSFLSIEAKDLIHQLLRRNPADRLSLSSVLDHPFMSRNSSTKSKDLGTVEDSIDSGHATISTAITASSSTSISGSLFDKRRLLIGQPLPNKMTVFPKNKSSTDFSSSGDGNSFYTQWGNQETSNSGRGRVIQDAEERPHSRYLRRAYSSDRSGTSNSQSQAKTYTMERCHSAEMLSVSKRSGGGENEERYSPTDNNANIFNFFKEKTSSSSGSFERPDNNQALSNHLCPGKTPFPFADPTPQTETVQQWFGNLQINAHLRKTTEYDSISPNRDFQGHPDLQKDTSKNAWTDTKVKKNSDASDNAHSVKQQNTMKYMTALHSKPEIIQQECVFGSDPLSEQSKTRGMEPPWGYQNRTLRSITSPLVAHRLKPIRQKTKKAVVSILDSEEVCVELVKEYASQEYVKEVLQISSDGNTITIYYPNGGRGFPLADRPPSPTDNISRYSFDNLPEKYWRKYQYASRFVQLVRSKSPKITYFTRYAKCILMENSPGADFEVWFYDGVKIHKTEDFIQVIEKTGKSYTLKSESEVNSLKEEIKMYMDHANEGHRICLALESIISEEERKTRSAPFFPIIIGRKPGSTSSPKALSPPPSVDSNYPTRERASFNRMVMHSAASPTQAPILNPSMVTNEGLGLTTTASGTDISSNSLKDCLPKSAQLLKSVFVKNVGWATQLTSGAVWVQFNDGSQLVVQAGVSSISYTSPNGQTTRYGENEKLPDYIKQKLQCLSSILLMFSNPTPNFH

[14] = target: Interleukin-1 receptor-associated kinase 1 (Homo sapiens) (UniProt P51617); conditions: Compound concentration 1000.0 nM
[15] = target: Cyclin-dependent kinase 4 (Homo sapiens) (UniProt P11802); conditions: Compound concentration 1000.0 nM
[16] = test system: Phosphatidylinositol 4,5-bisphosphate 3-kinase catalytic subunit alpha isoform (Homo sapiens), P42336 [M1043I]; conditions: Compound concentration 1000.0 nM
[17] = test system: Epidermal growth factor receptor (Homo sapiens), P00533 [G719S]; conditions: Compound concentration 1000.0 nM
[18] = target: Serine/threonine-protein kinase WNK4 (Homo sapiens) (UniProt Q96J92); conditions: Compound concentration 1000.0 nM
[19] = target: Tyrosine-protein kinase Tec (Homo sapiens) (UniProt P42680); conditions: Compound concentration 1000.0 nM
[20] = target: Myosin light chain kinase 2, skeletal/cardiac muscle (Homo sapiens) (UniProt Q9H1R3); conditions: Compound concentration 1000.0 nM
[21] = target: Aurora kinase A (Homo sapiens) (UniProt O14965); conditions: Compound concentration 1000.0 nM
[22] = target: 5-hydroxytryptamine receptor 6 (Homo sapiens) (UniProt P50406); conditions: Compound concentration 10.0 uM
[23] = target: Tyrosine-protein kinase Lck (Homo sapiens) (UniProt P06239); conditions: Compound concentration 1000.0 nM
[24] = target: Fibroblast growth factor receptor 1 (Homo sapiens) (UniProt P11362); conditions: Compound concentration 1000.0 nM
[25] = target: MAP/microtubule affinity-regulating kinase 4 (Homo sapiens) (UniProt Q96L34); conditions: Compound concentration 1000.0 nM
Sequence of MAP/microtubule affinity-regulating kinase 4 (Homo sapiens) (Q96L34 whole entry): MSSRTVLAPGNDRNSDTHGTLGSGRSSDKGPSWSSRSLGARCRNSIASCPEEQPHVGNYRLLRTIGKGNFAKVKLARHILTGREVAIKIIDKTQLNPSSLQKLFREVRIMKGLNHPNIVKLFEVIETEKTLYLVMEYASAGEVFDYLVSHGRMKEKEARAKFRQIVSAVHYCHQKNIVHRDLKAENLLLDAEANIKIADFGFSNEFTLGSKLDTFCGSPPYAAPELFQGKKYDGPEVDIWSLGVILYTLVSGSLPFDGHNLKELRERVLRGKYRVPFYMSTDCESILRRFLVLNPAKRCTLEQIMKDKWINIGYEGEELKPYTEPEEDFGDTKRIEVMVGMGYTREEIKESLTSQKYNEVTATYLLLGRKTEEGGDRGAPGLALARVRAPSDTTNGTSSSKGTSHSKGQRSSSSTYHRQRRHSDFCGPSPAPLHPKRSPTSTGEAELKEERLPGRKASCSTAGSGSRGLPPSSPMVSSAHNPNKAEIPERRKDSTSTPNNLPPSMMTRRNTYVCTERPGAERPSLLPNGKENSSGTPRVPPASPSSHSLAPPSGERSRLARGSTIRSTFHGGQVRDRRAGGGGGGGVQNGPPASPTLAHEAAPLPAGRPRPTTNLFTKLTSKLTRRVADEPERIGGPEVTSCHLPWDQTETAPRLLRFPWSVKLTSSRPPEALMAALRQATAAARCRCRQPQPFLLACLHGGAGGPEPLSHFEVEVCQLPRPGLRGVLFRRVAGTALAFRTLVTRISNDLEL

[26] = target: Cyclin-dependent kinase 5 (Homo sapiens) (UniProt Q00535); conditions: Compound concentration 1000.0 nM
[27] = target: Tyrosine-protein kinase Lyn (Homo sapiens) (UniProt P07948); conditions: Compound concentration 1000.0 nM
Sequence of Tyrosine-protein kinase Lyn (Homo sapiens) (P07948 2-512 limits assumed): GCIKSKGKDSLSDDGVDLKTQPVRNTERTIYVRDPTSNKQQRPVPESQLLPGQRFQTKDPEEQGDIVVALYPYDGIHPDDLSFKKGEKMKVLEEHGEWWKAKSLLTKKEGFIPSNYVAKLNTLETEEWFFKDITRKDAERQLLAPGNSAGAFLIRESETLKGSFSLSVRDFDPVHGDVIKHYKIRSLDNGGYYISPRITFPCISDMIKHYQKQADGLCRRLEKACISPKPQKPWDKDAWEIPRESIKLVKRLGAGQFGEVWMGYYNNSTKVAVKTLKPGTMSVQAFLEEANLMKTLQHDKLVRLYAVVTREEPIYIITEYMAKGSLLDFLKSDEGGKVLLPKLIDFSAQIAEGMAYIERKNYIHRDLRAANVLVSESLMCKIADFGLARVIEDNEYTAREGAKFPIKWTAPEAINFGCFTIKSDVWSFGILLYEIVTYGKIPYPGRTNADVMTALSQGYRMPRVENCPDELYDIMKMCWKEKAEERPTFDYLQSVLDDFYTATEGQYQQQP

[28] = target: Serine/threonine-protein kinase PAK 1 (Homo sapiens) (UniProt Q13153); conditions: Compound concentration 1000.0 nM
[29] = target: Serine/threonine-protein kinase 25 (Homo sapiens) (UniProt O00506); conditions: Compound concentration 1000.0 nM
[30] = target: Serine/threonine-protein kinase 35 (Homo sapiens) (UniProt Q8TDR2); conditions: Compound concentration 1000.0 nM
[31] = target: 3-phosphoinositide-dependent protein kinase 1 (Homo sapiens) (UniProt O15530); conditions: Compound concentration 1000.0 nM
[32] = target: Phosphatidylinositol 4-phosphate 3-kinase C2 domain-containing subunit beta (Homo sapiens) (UniProt O00750); conditions: Compound concentration 1000.0 nM
[33] = target: Mitogen-activated protein kinase kinase kinase kinase 4 (Homo sapiens) (UniProt O95819); conditions: Compound concentration 1000.0 nM
[34] = test system: Mast/stem cell growth factor receptor Kit (Homo sapiens), P10721 [A829P]; conditions: Compound concentration 1000.0 nM
[35] = target: Tyrosine-protein kinase JAK1 (Homo sapiens) (UniProt P23458); conditions: Compound concentration 1000.0 nM
[36] = target: Tyrosine-protein kinase HCK (Homo sapiens) (UniProt P08631); conditions: Compound concentration 1000.0 nM
[37] = target: Serine/threonine-protein kinase mTOR (Homo sapiens) (UniProt P42345); conditions: Compound concentration 1000.0 nM
[38] = target: Serine/threonine-protein kinase/endoribonuclease IRE1 (Homo sapiens) (UniProt O75460); conditions: Compound concentration 1000.0 nM
[39] = target: Serine/threonine-protein kinase VRK2 (Homo sapiens) (UniProt Q86Y07); conditions: Compound concentration 1000.0 nM
[40] = target: Delta-type opioid receptor (Homo sapiens) (UniProt P41143); conditions: Compound concentration 10.0 uM
[41] = target: Rhodopsin kinase GRK7 (Homo sapiens) (UniProt Q8WTQ7); conditions: Compound concentration 1000.0 nM
[42] = target: Serine/threonine-protein kinase MAK (Homo sapiens) (UniProt P20794); conditions: Compound concentration 1000.0 nM
[43] = target: Serine/threonine-protein kinase 32A (Homo sapiens) (UniProt Q8WU08); conditions: Compound concentration 1000.0 nM
[44] = target: Casein kinase II subunit alpha (Homo sapiens) (UniProt P68400); conditions: Compound concentration 1000.0 nM
[45] = target: Serine/threonine-protein kinase pim-3 (Homo sapiens) (UniProt Q86V86); conditions: Compound concentration 1000.0 nM

Sequence of ALK tyrosine kinase receptor (Homo sapiens), Q9UM73 [L1196M] (Q9UM73 whole entry L1196M, looked up): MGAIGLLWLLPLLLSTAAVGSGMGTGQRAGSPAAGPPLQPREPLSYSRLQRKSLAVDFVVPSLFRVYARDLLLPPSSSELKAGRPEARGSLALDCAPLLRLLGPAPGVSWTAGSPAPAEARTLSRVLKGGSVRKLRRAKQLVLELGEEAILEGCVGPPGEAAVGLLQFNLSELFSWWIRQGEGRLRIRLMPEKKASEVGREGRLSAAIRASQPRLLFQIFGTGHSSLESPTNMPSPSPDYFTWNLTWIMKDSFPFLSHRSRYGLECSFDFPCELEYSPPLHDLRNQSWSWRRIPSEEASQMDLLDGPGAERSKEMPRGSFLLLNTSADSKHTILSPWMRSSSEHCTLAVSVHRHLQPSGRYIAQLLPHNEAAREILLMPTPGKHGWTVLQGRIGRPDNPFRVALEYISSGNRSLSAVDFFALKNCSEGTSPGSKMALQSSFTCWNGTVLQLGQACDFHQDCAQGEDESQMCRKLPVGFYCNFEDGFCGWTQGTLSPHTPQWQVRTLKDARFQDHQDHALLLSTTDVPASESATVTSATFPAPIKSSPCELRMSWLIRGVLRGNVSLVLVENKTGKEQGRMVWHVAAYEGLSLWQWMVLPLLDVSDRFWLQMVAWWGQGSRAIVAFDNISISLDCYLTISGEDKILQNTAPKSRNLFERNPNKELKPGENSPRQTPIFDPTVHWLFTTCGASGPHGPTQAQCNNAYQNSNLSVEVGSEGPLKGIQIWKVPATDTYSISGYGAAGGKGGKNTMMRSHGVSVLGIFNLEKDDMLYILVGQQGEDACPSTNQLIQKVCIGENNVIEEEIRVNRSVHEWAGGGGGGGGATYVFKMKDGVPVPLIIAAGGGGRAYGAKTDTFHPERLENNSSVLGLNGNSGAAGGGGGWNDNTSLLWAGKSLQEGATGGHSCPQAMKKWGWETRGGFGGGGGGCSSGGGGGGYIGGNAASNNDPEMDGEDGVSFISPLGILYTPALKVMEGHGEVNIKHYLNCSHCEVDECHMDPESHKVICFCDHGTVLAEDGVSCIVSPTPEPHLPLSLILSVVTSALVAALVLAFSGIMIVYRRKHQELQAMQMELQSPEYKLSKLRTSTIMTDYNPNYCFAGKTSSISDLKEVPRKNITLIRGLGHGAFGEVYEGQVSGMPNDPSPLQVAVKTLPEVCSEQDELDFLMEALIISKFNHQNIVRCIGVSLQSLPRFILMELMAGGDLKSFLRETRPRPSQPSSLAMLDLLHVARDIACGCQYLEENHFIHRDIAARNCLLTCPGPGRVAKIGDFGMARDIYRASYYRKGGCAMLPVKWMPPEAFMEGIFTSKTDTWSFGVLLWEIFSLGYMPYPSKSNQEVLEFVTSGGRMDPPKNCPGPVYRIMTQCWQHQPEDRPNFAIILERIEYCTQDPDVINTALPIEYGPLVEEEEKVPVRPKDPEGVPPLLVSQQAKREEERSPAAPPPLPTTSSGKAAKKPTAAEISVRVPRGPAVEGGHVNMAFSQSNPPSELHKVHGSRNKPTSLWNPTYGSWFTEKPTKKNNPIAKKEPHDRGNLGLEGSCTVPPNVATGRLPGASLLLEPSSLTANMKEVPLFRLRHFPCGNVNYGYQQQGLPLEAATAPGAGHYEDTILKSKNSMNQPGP

C[C@H](NC(=O)c1cnc2n1[C@](C)(Cc1ccc(C#N)cc1)C(=O)N2c1cc(Cl)c(F)c(Cl)c1)C(=O)NC1(c2ccccn2)CC1 [BI 1950]
inactive: residual activity [1] 65% | residual activity [2] 100% | residual activity [3] 100% | residual activity [4] 100% | residual activity [5] 100% | residual activity [6] 88% | residual activity [7] 100% | residual activity [8] 100% | residual activity [9] 100% | residual activity [10] 100% | residual activity [11] 97% | residual activity [12] 100% | residual activity [13] 88% | residual activity [14] 100% | residual activity [15] 100% | residual activity [16] 100% | residual activity [17] 100% | residual activity [18] 100% | residual activity [19] 75% | residual activity [20] 98% | residual activity [21] 100% | inhibition [22] 6.67% | residual activity [23] 100% | residual activity [24] 100% | residual activity [25] 100% | residual activity [26] 100% | residual activity [27] 100% | residual activity [28] 95% | residual activity [29] 100% | residual activity [30] 100% | residual activity [31] 100% | residual activity [32] 85% | residual activity [33] 100% | residual activity [34] 100% | residual activity [35] 100% | residual activity [36] 100% | residual activity [37] 96% | residual activity [38] 96% | residual activity [39] 100% | inhibition [40] -0.33% | residual activity [41] 100% | residual activity [42] 100% | residual activity [43] 83% | residual activity [44] 81% | residual activity [45] 100%

C[C@@]1(Cc2ccc(C#N)cc2)C(=O)N(c2cc(Cl)cc(Cl)c2)c2ncc(C(=O)NC3(c4nc(C5CCC5)no4)CC3)n21 [BI 9446]
inactive: residual activity [1] 72% | residual activity [2] 100% | residual activity [3] 100% | residual activity [4] 90% | residual activity [5] 100% | residual activity [6] 91% | residual activity [7] 100% | residual activity [8] 100% | residual activity [9] 100% | residual activity [10] 100% | residual activity [11] 96% | residual activity [12] 100% | residual activity [13] 90% | residual activity [14] 100% | residual activity [15] 100% | residual activity [16] 100% | residual activity [17] 99% | residual activity [18] 100% | residual activity [19] 92% | residual activity [20] 100% | residual activity [21] 92% | inhibition [22] 16.1% | residual activity [23] 100% | residual activity [24] 100% | residual activity [25] 100% | residual activity [26] 100% | residual activity [27] 95% | residual activity [28] 99% | residual activity [29] 100% | residual activity [30] 100% | residual activity [31] 100% | residual activity [32] 100% | residual activity [33] 91% | residual activity [34] 100% | residual activity [35] 100% | residual activity [36] 100% | residual activity [37] 91% | residual activity [38] 82% | residual activity [39] 100% | inhibition [40] 8.3% | residual activity [41] 100% | residual activity [42] 100% | residual activity [43] 100% | residual activity [44] 91% | residual activity [45] 100%
